Reference: patent publication US8148391B2 (Cephalon, Inc., priority 2006, dated 2012)

Key:
[1] = molecular target: T1, c-Met (cytoplasmic domain) (Homo sapiens, UniProt P08581); experiment: c-Met Kinase Assay (same methods as for ALK, with modifications); format: biochemical; settings: c-Met kinase inhibition, 1 μM ATP; read-out: cMet Activity
T1 construct: 10 ng/mL c-Met (cytoplasmic domain, Invitrogen Corporation #PV3143); purchased Invitrogen Corporation PV3143
Procedure, shortened: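 Steps: coat wells with PLC-γ (10 μg/mL, Tris-buffered saline); add 10 ng/mL c-Met cytoplasmic domain to initiate; incubate 15 min, 37° C; detect phosphoproduct via Eu-N1 PT66 antibody.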

[2] = molecular target: T2, baculovirus-expressed ALK (Homo sapiens, UniProt Q9UM73); experiment: ALK Kinase Assay (ELISA-type, time-resolved fluorescence); format: biochemical; settings: ALK kinase inhibition, 1 μM ATP; read-out: ALK Activity
T2 construct: host or cells: baculovirus expression system
Procedure, shortened: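 Wells were coated with phospholipase C-γ at 10 μg/mL in Tris-buffered saline. Adding 30 ng/ml enzyme started the reaction, which ran at 37° C for 15 minutes before Eu-N1 PT66 antibody detection. Percent inhibition versus log10 concentration gave IC50 by variable-slope fit.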

T1 sequence (P08581 956-1390 limits assumed): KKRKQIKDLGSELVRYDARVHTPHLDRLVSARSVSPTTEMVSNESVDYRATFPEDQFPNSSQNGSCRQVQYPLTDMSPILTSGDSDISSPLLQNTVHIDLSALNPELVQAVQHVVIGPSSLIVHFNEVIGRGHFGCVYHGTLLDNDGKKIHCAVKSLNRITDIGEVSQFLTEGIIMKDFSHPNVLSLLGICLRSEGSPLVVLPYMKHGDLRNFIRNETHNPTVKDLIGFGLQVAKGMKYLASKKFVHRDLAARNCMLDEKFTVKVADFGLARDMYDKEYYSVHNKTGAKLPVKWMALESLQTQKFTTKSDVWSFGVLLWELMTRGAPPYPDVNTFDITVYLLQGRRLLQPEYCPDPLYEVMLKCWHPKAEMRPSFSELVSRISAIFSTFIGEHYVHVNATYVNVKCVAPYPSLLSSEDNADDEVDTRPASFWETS
T2 sequence (Q9UM73 19-1620): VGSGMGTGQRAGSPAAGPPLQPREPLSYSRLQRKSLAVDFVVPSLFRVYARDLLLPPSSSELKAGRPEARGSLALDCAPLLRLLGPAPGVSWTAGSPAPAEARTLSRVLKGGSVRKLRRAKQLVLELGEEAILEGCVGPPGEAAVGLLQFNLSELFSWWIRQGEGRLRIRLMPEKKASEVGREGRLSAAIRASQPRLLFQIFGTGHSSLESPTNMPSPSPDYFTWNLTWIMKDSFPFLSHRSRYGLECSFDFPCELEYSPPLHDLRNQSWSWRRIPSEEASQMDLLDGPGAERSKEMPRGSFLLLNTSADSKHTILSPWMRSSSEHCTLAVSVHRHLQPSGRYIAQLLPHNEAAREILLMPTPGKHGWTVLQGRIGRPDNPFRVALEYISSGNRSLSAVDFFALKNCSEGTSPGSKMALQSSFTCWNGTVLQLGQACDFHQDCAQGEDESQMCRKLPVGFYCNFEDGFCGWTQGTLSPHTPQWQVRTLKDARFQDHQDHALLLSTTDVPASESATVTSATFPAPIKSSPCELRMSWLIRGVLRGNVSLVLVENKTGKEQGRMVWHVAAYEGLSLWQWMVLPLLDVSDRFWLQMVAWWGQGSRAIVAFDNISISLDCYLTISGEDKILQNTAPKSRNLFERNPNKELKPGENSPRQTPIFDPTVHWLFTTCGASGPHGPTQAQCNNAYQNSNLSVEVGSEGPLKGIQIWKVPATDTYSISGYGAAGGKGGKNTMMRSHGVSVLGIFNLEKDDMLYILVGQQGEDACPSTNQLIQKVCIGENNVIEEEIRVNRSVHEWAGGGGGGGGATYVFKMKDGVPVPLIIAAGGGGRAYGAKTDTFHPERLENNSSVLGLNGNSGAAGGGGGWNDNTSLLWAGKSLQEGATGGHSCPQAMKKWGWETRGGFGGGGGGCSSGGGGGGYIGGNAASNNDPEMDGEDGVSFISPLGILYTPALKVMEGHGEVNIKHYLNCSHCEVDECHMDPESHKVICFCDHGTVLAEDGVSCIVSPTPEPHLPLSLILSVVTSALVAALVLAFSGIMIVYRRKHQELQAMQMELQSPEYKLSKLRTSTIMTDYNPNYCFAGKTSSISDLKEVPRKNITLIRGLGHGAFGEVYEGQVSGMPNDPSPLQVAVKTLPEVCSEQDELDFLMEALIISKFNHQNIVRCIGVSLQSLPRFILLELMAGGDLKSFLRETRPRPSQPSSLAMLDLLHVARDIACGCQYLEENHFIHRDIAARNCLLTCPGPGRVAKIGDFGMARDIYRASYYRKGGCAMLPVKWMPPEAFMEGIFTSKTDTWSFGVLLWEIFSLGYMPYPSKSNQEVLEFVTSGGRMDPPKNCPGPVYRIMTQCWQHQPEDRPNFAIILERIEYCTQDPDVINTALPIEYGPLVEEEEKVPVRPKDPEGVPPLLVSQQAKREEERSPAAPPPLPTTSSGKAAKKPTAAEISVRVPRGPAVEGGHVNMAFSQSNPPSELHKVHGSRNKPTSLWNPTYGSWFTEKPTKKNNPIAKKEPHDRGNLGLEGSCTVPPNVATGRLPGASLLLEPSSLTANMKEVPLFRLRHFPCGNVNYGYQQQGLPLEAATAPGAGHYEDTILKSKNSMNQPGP

Row | SMILES | IC50 [1] | IC50 [2]
1 | COc1cc2c(cc1Nc1ncc(Cl)c(N[C@@H]3CCCC[C@H]3NS(C)(=O)=O)n1)NC(=O)CN(CC1CC1)C2 [Example 1666, N-(1R,2R)-{2-[5-Chloro-2-(4-cyclopropylmethyl-7-methoxy-2-oxo-2,3,4,5-tetrahydro-1H-benzo[e][1,4]diazepin-8-ylamino)-pyrimidin-4-ylamino]-cyclohexyl}-methanesulfonamide] | > 10000 nM | < 100 nM
2 | COc1cc2c(cc1Nc1ncc(Cl)c(N[C@H]3[C@@H](C(N)=O)[C@@H]4C=C[C@H]3C4)n1)NC(=O)CN(CC1CC1)C2 [Example 1667, (1S,2S,3R,4R)-3-[5-Chloro-2-(4-cyclopropylmethyl-7-methoxy-2-oxo-2,3,4,5-tetrahydro-1H-benzo[e][1,4]diazepin-8-ylamino)-pyrimidin-4-ylamino]-bicyclo[2.2.1]hept-5-ene-2-carboxylic acid amide] | > 10000 nM | < 100 nM
3 | COc1cc2c(cc1Nc1ncc(Cl)c(Nc3ccccc3S(=O)(=O)N3CCCC3)n1)NC(=O)CN(CC1CC1)C2 [Example 1668, 8-{5-Chloro-4-[2-(pyrrolidine-1-sulfonyl)-phenylamino]-pyrimidin-2-ylamino}-4-cyclopropylmethyl-7-methoxy-1,3,4,5-tetrahydro-benzo[e][1,4]diazepin-2-one] | 1000 to 10000 nM | < 100 nM
4 | CNC(=O)c1ccccc1Nc1nc(Nc2cc3c(cc2OC)NC(=O)CCC3(C)C)ncc1Cl [Example 1671, 2-[5-Chloro-2-(8-methoxy-5,5-dimethyl-2-oxo-2,3,4,5-tetrahydro-1H-benzo[b]azepin-7-ylamino)-pyrimidin-4-ylamino]-N-methyl-benzamide] | 1000 to 10000 nM | < 100 nM
5 | COc1cc2c(cc1Nc1ncc(Cl)c(Nc3ccc(N4CCOCC4)cc3OC)n1)C(C)(C)CCC(=O)N2 [Example 1672, 7-[5-Chloro-4-(2-methoxy-4-morpholin-4-yl-phenylamino)-pyrimidin-2-ylamino]-8-methoxy-5,5-dimethyl-1,3,4,5-tetrahydro-benzo[b]azepin-2-one] | > 10000 nM | 100 to 1000 nM
6 | COc1cc2c(cc1Nc1ncc(Cl)c(N[C@H]3[C@@H](C(N)=O)[C@@H]4C=C[C@H]3C4)n1)CCN(C[C@H](O)C(F)(F)F)CC2 [Example 1673, (1S,2S,3R,4R)-3-{5-Chloro-2-[8-methoxy-3-((S)-3,3,3-trifluoro-2-hydroxy-propyl)-2,3,4,5-tetrahydro-1H-benzo[d]azepin-7-ylamino]-pyrimidin-4-ylamino}-bicyclo[2.2.1]hept-5-ene-2-carboxylic acid amide] | > 10000 nM | < 100 nM
7 | CN([C@@H]1CCCC[C@H]1Nc1nc(Nc2ccc3c(c2)C(C)(C)CCC(=O)N3)ncc1Cl)S(C)(=O)=O [Example 1674, N-{(1R,2R)-2-[5-Chloro-2-(5,5-dimethyl-2-oxo-2,3,4,5-tetrahydro-1H-benzo[b]azepin-7-ylamino)-pyrimidin-4-ylamino]-cyclohexyl}-N-methyl-methanesulfonamide] | 1000 to 10000 nM | < 100 nM
8 | CCN([C@@H]1CCCC[C@H]1Nc1nc(Nc2ccc3c(c2)C(C)(C)CCC(=O)N3)ncc1Cl)S(C)(=O)=O [Example 1675, N-{(1R,2R)-2-[5-Chloro-2-(5,5-dimethyl-2-oxo-2,3,4,5-tetrahydro-1H-benzo[b]azepin-7-ylamino)-pyrimidin-4-ylamino]-cyclohexyl}-N-ethyl-methanesulfonamide] | 1000 to 10000 nM | < 100 nM
9 | COCCN1CCc2cc(Nc3ncc(Cl)c(N[C@@H]4CCCC[C@H]4N(C)S(C)(=O)=O)n3)c(OC)cc2CC1 [Example 1676, N-((1R,2R)-2-{5-Chloro-2-[8-methoxy-3-(2-methoxy-ethyl)-2,3,4,5-tetrahydro-1H-benzo[d]azepin-7-ylamino]-pyrimidin-4-ylamino}-cyclohexyl)-N-methyl-methanesulfonamide] | > 10000 nM | < 100 nM
10 | CCN([C@@H]1CCCC[C@H]1Nc1nc(Nc2cc3c(cc2OC)CCN(CCOC)CC3)ncc1Cl)S(C)(=O)=O [Example 1677, N-((1R,2R)-2-{5-Chloro-2-[8-methoxy-3-(2-methoxy-ethyl)-2,3,4,5-tetrahydro-1H-benzo[d]azepin-7-ylamino]-pyrimidin-4-ylamino}-cyclohexyl)-N-ethyl-methanesulfonamide] | > 10000 nM | < 100 nM
11 | CCN1C(=O)CCCc2cc(Nc3ncc(Cl)c(N[C@@H]4CCCC[C@H]4N(C)S(C)(=O)=O)n3)c(OC)cc21 [Example 1678, N-{(1R,2R)-2-[5-Chloro-2-(1-ethyl-8-methoxy-2-oxo-2,3,4,5-tetrahydro-1H-benzo[b]azepin-7-ylamino)-pyrimidin-4-ylamino]-cyclohexyl}-N-methyl-methanesulfonamide] | 1000 to 10000 nM | < 100 nM
12 | CCN1C(=O)CCCc2c1ccc(Nc1ncc(Cl)c(N[C@@H]3CCCC[C@H]3N(C)S(C)(=O)=O)n1)c2OC [Example 1679, N-{(1R,2R)-2-[5-Chloro-2-(1-ethyl-6-methoxy-2-oxo-2,3,4,5-tetrahydro-1H-benzo[b]azepin-7-ylamino)-pyrimidin-4-ylamino]-cyclohexyl}-N-methyl-methanesulfonamide] | > 10000 nM | 100 to 1000 nM
13 | CN1C(=O)CCC(C)(C)c2cc(Nc3ncc(Cl)c(N[C@@H]4CCCC[C@H]4N(C)S(C)(=O)=O)n3)ccc21 [Example 1680, N-{(1R,2R)-2-[5-Chloro-2-(1,5,5-trimethyl-2-oxo-2,3,4,5-tetrahydro-1H-benzo[b]azepin-7-ylamino)-pyrimidin-4-ylamino]-cyclohexyl}-N-methyl-methanesulfonamide] | 100 to 1000 nM | < 100 nM
14 | CN(CCC#N)C(=O)c1ccccc1Nc1nc(Nc2ccc3c(c2)CCCC(=O)N3C)ncc1Cl [Example 1682, 2-[5-Chloro-2-(1-methyl-2-oxo-2,3,4,5-tetrahydro-1H-benzo[b]azepin-7-ylamino)-pyrimidin-4-ylamino]-N-(2-cyano-ethyl)-N-methyl-benzamide] | 100 to 1000 nM | < 100 nM
15 | CS(=O)(=O)N[C@@H]1CCCC[C@H]1Nc1nc(Nc2cc(F)cc3c2OCCNC3=O)ncc1Cl [Example 1683, N-{(1R,2R)-2-[5-Chloro-2-(7-fluoro-5-oxo-2,3,4,5-tetrahydro-benzo[f][1,4]oxazepin-9-ylamino)-pyrimidin-4-ylamino]-cyclohexyl}-methanesulfonamide] | > 10000 nM | 100 to 1000 nM
16 | COc1cc(N2CCOCC2)ccc1Nc1nc(Nc2cc(F)cc3c2OCCNC3=O)ncc1Cl [Example 1684, 9-[5-Chloro-4-(2-methoxy-4-morpholin-4-yl-phenylamino)-pyrimidin-2-ylamino]-7-fluoro-3,4-dihydro-2H-benzo[f][1,4]oxazepin-5-one] | > 10000 nM | < 100 nM
17 | COCCN1CCc2ccc(Nc3ncc(Cl)c(Nc4ccccc4S(=O)(=O)C(C)C)n3)cc2CC1 [Example 1685, 5-Chloro-N*2*-[3-(2-methoxy-ethyl)-2,3,4,5-tetrahydro-1H-benzo[d]azepin-7-yl]-N*4*-[2-(propane-2-sulfonyl)-phenyl]-pyrimidine-2,4-diamine] | 100 to 1000 nM | < 100 nM
18 | COCCN1CCc2ccc(Nc3ncc(Cl)c(Nc4ccccc4S(=O)(=O)N(C)C)n3)cc2CC1 [Example 1686, 2-{5-Chloro-2-[3-(2-methoxy-ethyl)-2,3,4,5-tetrahydro-1H-benzo[d]azepin-7-ylamino]-pyrimidin-4-ylamino}-N,N-dimethyl-benzenesulfonamide] | 100 to 1000 nM | < 100 nM
